Legend:
topoisomerase I = molecular target: T1, topoisomerase I (Homo sapiens, UniProt P11387); assay: Topoisomerase I assay (supercoiled pBluescript DNA, agarose gel); format: biochemical; conditions: in vitro, FIG. 2
T1 construct: purchased Sigma-Aldrich
T1 sequence (P11387 1-765): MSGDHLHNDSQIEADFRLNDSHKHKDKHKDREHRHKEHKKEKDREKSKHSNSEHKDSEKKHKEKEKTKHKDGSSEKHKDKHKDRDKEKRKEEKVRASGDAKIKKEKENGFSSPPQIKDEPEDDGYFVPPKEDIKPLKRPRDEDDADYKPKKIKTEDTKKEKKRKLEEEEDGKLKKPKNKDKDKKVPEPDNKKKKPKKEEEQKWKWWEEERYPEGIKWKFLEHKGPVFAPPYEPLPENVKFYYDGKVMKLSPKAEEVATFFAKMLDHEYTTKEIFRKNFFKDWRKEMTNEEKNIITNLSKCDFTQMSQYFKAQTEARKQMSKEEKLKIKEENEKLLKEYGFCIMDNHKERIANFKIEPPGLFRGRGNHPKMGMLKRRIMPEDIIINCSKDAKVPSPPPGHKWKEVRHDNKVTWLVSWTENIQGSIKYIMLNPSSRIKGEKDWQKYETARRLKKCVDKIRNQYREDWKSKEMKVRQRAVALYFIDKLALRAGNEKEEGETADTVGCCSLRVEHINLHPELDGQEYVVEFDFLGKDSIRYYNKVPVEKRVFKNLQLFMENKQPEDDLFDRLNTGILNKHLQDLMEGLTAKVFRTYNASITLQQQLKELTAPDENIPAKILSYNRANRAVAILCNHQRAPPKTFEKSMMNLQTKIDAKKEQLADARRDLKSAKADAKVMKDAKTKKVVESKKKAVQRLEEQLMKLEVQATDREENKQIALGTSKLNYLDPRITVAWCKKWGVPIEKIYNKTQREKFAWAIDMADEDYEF
Experimental: (§1) The ability of compounds that cause S-phase cell cycle arrest to inhibit topoisomerase I and topoisomerase II was examined. Analysis of topoisomerase activity was performed in 20 μl reactions with either topoisomerase I reaction buffer (10 mM TRIS-HCl, pH 7.5; 100 mM NaCl; 1 mM 2-mercaptoethanol) or topoisomerase II reaction buffer (50 mM Tris-HCl, pH 8; 120 mM KCl; 10 mM MgCl2; 0.5 mM dithiothreitol; 0.5 mM ATP; 30 μg BSA/ml) containing 125 ng supercoiled pBluescript DNA and either 2 U topoisomerase I (Sigma-Aldrich) or topoisomerase II (Topogen Inc.). After reaction at 37° C. for 20 minutes, the reactions were terminated through the addition of sodium dodecyl sulfate to 1% w/v and heating to 65° C. for 10 minutes. Proteinase K was then added to 10 μg/ml and digestion was allowed to proceed at 37° C. for 20 minutes before electrophoresis of the DNA in 0.8% agarose gels containing 0.5 μg/ml ethidium bromide for 18 hours at 75V in 0.5×TBE buffer. DNA was then visualized using a UV-transilluminator and the image was captured using a BioRad CCD camera and gel documentation system.

HEK293 cells [1] = assay: HEK293 cell viability, CellTiter 96 Aqueous One Solution Cell Proliferation assay; format: cell-based; conditions: Homo sapiens, HEK293, 48 h, read-out: EC50
Experimental: The effect of various doses of compounds 5a, 5a,b, and 9a on the viability of HEK293 cells was examined using the CellTiter 96 Aqueous One Solution Cell Proliferation assay (Promega). The HEK293 cells were cultured in DMEM media (Cellgro) or phenol red-free DMEM (Gibco) supplemented with 10% Fetal Bovine Serum (Tissue Culture Biologicals) and 1× Penicillin/Streptomycin/Glutamine (Gibco). The cells were grown at 37° C. with 5% CO2. HEK293 cells were seeded into each well of a 96-well plate (5000 cells/well) and incubated overnight to allow the cells to attach. The culture media was removed and replaced with 100 μl of phenol red-free media containing the compounds 5a, 5a,b, and 9a at various concentrations. The cells were allowed to grow in the presence of the compounds for 48 hrs. At the end of the treatment, 20 μl of CellTiter 96 Aqueous One Solution reagent was added directly into each well, and the cells were incubated at 37° C. for 2 hrs. This reagent converts to a form that absorbs light at 490 nm by living cells. Thus, absorbance at 490 nm is proportional to the number of viable cells. The 490 nm absorbance was measured on a BioRad plate reader. Control wells containing no cells were included in this assay to correct for background absorbance.

HEK293 cells [2] = assay: Cell cycle analysis by FACS of HEK293 cells; format: cell-based; conditions: HEK293, 50 μM, treated 16 to 24 hrs
Experimental: Fluorescence-activated cell sorting (FACS) analysis was used to examine the cell cycle state when the cells were incubated with compounds of formula (I) as well as several control compounds, including DMSO, noscapine (a known G2/M inhibitor), and colchicine (a known G2/M inhibitor).
In particular, HEK293 cells were cultured in DMEM media (Celigro) supplemented with 10% Fetal Bovine Serum (Tissue Culture Biologicals) and 1× Penicillin/Streptomycin/Glutamine (Gibco). The cells were grown at 37° C. with 5% CO2, plated in six-well plates at 2.5×10^6 cells/well, and treated for 16 to 24 hrs with the compounds at the concentrations shown in Table 1, below. The cells were then triturated off the bottom of the wells, washed 1× with PBS, then fixed with 70% ethanol, and stored at 4° C. before staining and FACS analysis.
The DNA content of cells was determined using a FacsVantage SE flow cytometry system (Becton Dickinson, San Jose, Calif.) and a Cellular DNA Flow Cytometric Analysis Kit (Roche Applied Science, Indianapolis, Ind.). Cell cycle analysis was performed using Cylchred 1.0.2 software.

topoisomerase II = molecular target: T2, topoisomerase II (Homo sapiens, UniProt P11388); assay: Topoisomerase II assay (supercoiled pBluescript DNA, agarose gel); format: biochemical; conditions: in vitro, FIG. 2
T2 construct: purchased Topogen Inc
T2 sequence (P11388 whole entry): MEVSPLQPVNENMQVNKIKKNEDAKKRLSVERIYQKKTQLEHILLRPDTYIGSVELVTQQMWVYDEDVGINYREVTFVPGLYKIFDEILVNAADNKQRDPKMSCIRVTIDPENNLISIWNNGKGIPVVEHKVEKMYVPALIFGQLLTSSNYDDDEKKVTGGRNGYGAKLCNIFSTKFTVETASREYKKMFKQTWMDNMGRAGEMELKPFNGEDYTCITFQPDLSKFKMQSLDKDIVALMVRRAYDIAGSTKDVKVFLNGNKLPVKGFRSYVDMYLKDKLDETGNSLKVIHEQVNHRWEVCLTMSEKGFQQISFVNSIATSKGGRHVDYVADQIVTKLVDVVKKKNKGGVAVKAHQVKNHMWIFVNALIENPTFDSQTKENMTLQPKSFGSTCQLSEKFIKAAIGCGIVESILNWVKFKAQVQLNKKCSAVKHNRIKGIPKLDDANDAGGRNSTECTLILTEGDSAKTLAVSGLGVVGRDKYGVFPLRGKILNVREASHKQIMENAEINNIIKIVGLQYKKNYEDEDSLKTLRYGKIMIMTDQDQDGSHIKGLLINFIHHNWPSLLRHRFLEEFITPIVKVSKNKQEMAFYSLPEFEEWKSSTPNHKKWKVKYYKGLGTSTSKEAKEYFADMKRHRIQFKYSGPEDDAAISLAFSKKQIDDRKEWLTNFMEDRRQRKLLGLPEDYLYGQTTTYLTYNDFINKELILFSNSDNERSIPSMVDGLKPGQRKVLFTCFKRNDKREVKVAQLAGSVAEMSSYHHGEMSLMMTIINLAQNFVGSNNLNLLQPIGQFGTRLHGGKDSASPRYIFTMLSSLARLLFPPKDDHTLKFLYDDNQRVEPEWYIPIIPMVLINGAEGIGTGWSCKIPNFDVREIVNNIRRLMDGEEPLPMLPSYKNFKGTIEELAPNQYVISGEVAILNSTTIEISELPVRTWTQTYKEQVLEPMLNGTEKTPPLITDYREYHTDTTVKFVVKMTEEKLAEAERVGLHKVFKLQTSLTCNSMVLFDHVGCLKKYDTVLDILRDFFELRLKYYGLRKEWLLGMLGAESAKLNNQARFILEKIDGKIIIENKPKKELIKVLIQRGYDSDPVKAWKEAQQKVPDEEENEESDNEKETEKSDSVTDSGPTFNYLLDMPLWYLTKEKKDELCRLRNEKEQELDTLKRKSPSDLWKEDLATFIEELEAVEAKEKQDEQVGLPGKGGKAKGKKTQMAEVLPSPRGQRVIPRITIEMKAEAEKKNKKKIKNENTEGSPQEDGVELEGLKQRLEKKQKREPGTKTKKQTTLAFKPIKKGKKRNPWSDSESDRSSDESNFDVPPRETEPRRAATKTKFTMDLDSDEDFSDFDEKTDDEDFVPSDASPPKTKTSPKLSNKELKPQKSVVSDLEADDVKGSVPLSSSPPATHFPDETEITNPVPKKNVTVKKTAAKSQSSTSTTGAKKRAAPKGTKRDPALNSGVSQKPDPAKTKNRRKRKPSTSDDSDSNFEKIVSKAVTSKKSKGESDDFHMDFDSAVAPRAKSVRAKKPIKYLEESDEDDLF
Experimental: as §1, with “Analysis” for “The ability of compounds that cause S-phase cell cycle arrest to inhibit topoisomerase I and topoisomerase II was examined. Analysis”

Compound: COc1ccc2c(c1OC)C(=O)O[C@@H]2[C@H]1c2c(cc3c(c2OC)OCO3)CCN1C [Noscapine, noscapine, reference compound]
- inhibition of topoisomerase I activity (topoisomerase I): neither etoposide nor noscapine inhibited
- EC50 (HEK293 cells [1]): ~10 µM
- Percent of Cells in G1 (HEK293 cells [2]): 19.2%
- Percent of Cells in G2/M (HEK293 cells [2]): 49.6%
- Percent of Cells in S (HEK293 cells [2]): 31.1%
- inhibition of topoisomerase II activity (topoisomerase II): neither topotecan nor noscapine acts as inhibitors

Source: patent US20050049278A1, “Benzo[1,3]dioxole compounds, pharmaceutical compositions thereof, and processes of making and using the same” (priority 2003, published 2005)
